Data from PMC10145446, “Developing a Formulation Strategy Coupled with PBPK Modeling and Simulation for the Weakly Basic Drug Albendazole” (Pharmaceutics, 2023).
≈ marks a conversion by molar mass, not a printed value. Read-outs that look alike come from different tables or passages of the source.

Key:
[1] = Equilibrium solubility by shake flask method; assay type: physicochemical
Method: The equilibrium solubility of ABZ was measured by the shake flask method at 37 ± 2 °C in different pH solution systems: 0.1 N HCl (pH 1.20 ± 0.01 and pH 2.0 ± 0.01), 0.02 M acetate buffer (pH 4.5 ± 0.02), and 0.05 M phosphate buffer (pH 6.8 ± 0.01). Solubility was also determined in FaSSGF (pH 1.6 ± 0.01), FaSSIF (pH 6.5 ± 0.01), and FeSSIF (pH 5.0 ± 0.01) containing bile concentrations of 0.08 mM, 3 mM, and 15 mM, respectively. For each experiment, an excess amount of ABZ (~10 mg) was dispersed in 3 mL of solution. A sample was collected after 72 h and filtered using 0.45 µm polytetrafluoroethylene membrane disc filters (Pall Corp., New York, NY, USA). The samples were analyzed using a validated HPLC method. All experiments were performed in triplicate. The pH solubility profile and biorelevant solubility data for ABZ were analyzed using Simcyp™ In Vitro Data Analysis (SIVA, Certara UK Ltd., Sheffield, UK) software in order to estimate intrinsic solubility and the micelle-buffer partition coefficient (log Km:w). These parameter values were incorporated into the PBPK model for ABZ.

FMO3 = details: ref [36]; cited from earlier work
[2] = PBPK model simulation in Healthy Human Volunteer Population; details: healthy volunteers, albendazole 400 mg oral
Method: Clinically observed plasma profiles of ABZ and ABZ_SO were digitized from a published study using WebPlotDigitizer (Version 4.2, Austin, TX, USA), and the systemic exposure parameters (Cmax, AUC) were used to verify the model. PBPK model simulations were performed using the Healthy Human Volunteer Population according to the design of the referenced clinical study: 10 subjects (6 male, 4 female), aged 21 to 44 years, single oral dose of albendazole (400 mg). Model verification was based on visual inspection of the simulated ABZ and ABZ_SO mean plasma versus time profiles compared to observed data, and the fold error (ratio of model predicted and observed values) for Cmax and AUC of ABZ and ABZ_SO.

[3] = cited from earlier work
[4] = parameters: method as in PMID 29403987; details: healthy volunteers, single oral dose of albendazole 400 mg; ref [41]; cited from earlier work
CYP3A4 = details: ref [36]; cited from earlier work
physchem = details: aqueous pH solution systems (pH solubility profile), 37 °C, aqueous buffer, thermodynamic from solid
Method: The equilibrium solubility of ABZ was measured by the shake flask method at 37 ± 2 °C in different pH solution systems: 0.1 N HCl (pH 1.20 ± 0.01 and pH 2.0 ± 0.01), 0.02 M acetate buffer (pH 4.5 ± 0.02), and 0.05 M phosphate buffer (pH 6.8 ± 0.01). Solubility was also determined in FaSSGF (pH 1.6 ± 0.01), FaSSIF (pH 6.5 ± 0.01), and FeSSIF (pH 5.0 ± 0.01) containing bile concentrations of 0.08 mM, 3 mM, and 15 mM, respectively [25]. For each experiment, an excess amount of ABZ (~10 mg) was dispersed in 3 mL of solution. A sample was collected after 72 h and filtered using 0.45 µm polytetrafluoroethylene membrane disc filters (Pall Corp., New York, NY, USA). The samples were analyzed using a validated HPLC method. All experiments were performed in triplicate. The pH solubility profile and biorelevant solubility data for ABZ were analyzed using Simcyp™ In Vitro Data Analysis (SIVA, Certara UK Ltd., Sheffield, UK) software in order to estimate intrinsic solubility and the micelle-buffer partition coefficient (log Km:w). These parameter values were incorporated into the PBPK model for ABZ.
Data from dissolution experiments were used to estimate intrinsic solubility and bile-salt micelle-mediated solubilization using SIVA. Micelle buffer partition coefficients (log Km:w) for ABZ, both in neutral and ionic species of ABZ, were estimated using observed solubilities in biorelevant media.

[5] = parameters: method as in PMID 7571717; details: in humans; ref [43]; cited from earlier work
[6] = Particle size distribution by laser diffraction; assay type: physicochemical; details: pure ABZ
Method: Particle size distribution (PSD) data for the marketed formulation are not publicly available. […] The particle size distribution of ABZ was measured by laser diffraction using a Mastersizer 3000 equipped with Aero S (dry dispersion feeder unit). The instrument software was used to calculate d10, d50, and d90, representing the volume percentage or portion of particles below the 10th, 50th, and 90th percentiles, respectively. PSD was characterized as a Weibull distribution function, and the data were analyzed to estimate the Weibull parameter values and mean radiuses, which served as the input parameters in the model development.

[7] = Transfer system experiment (FaSSGF to FaSSIF) for precipitation kinetics; assay type: physicochemical; details: for Precipitation rate constant (PRC): max. value
Method: These experiments were carried out in order to characterize the precipitation kinetics of ABZ in a system designed to mimic the physiologic conditions in the GI tract as the drug moves from the stomach to the small intestine, where precipitation is inevitable and limits the availability of the soluble drug for absorption. To simulate the impact on solubility when the drug transits from the stomach into the intestine, the experimental system (Figure 1) consisted of two physiologically relevant compartments with allowances for modifications in transfer rate (representing the GI emptying rate), paddle speeds (representing the hydrodynamics inside the GI tract), and composition (representing fasted vs. fed conditions). A conventional dissolution system (Distek 5100, Distek Inc., North Brunswick Township, NJ, USA) with a USP-II paddle method was utilized. The gastric compartment contained FaSSGF media (250 mL, pH 1.6), and FaSSIF media (500 mL, pH 6.5), which constituted the intestinal compartment. FaSSIF was prepared with a higher buffer capacity to minimize pH changes after the complete transfer of the simulated gastric media. The paddle speed was maintained at 100 rpm for both compartments. The transfer was initiated after 30 min at a constant rate of 7 mL/min using an Econo™ Gradient pump (Bio-Rad Laboratories, Inc., Hercules, CA, USA). The following experiments were carried out: (a) 40 mg of free ABZ base (neat API) to maintain the sink condition in the gastric media. (b) Marketed immediate-release formulation (equivalent to 40 mg of ABZ) to maintain the sink condition and to determine the effect of excipients on promoting the supersaturation state. (c) Marketed immediate-release tablet formulation (400 mg of ABZ).
The gastric compartment was sampled at 5, 15, and 30 min, at which time the transfer to the intestinal compartment was initiated. Then, samples were collected from the intestinal compartment for an additional 90 min (32, 35, 40, 45, 50, 60, 75, 90, 105, and 120 min). Samples were filtered through 0.45 µm PTFE filters and immediately diluted with the mobile phase before quantitative analysis by HPLC. All dissolution experiments were performed in triplicate.

[8] = parameters: method as in Literature; details: ref Literature; cited from earlier work

In the case of `CCCSc1ccc2nc(NC(=O)OC)[nH]c2c1` [ABZ, Albendazole], the solubility at 72 h ([1]; 0.02 M acetate buffer, 37 °C, pH 4.5, aqueous buffer, thermodynamic from solid, pH 4.5 Acetate buffer, 37 ± 2.0 °C, read-out: Solubility) is reported as 8 ± 2 µg/mL (≈ 30.2 µM), the solubility at 72 h ([1]; 0.05 M phosphate buffer, 37 °C, pH 6.8, aqueous buffer, thermodynamic from solid, pH 6.8, read-out: solubility) is reported as about 5 µg/mL (≈ 18.8 µM) and the solubility at 72 h ([1]; 0.05 M phosphate buffer, 37 °C, pH 6.8, aqueous buffer, thermodynamic from solid, pH 6.8 Phosphate buffer, 37 ± 2.0 °C, read-out: Solubility) is reported as 5 ± 1 µg/mL (≈ 18.8 µM). For the same molecule, the solubility at 72 h ([1]; 0.1 N HCl, 37 °C, pH 1.2, simulated gastric fluid, thermodynamic from solid, pH 1.2, read-out: maximum solubility) was about 500 µg/mL (≈ 1880 µM), the solubility at 72 h ([1]; 0.1 N HCl, 37 °C, pH 1.2, simulated gastric fluid, thermodynamic from solid, pH 1.2 HCl buffer, 37 ± 2.0 °C, read-out: Solubility) was 515 ± 45 µg/mL (≈ 1940 µM) and the solubility at 72 h ([1]; 0.1 N HCl, pH 2, pH 2.0 HCl buffer, 37 ± 2.0 °C, read-out: Solubility) was 25 ± 5 µg/mL (≈ 94.2 µM). It also gave a solubility at 72 h ([1]; FaSSGF, 37 °C, pH 1.6, fassgf or other biorelevant, thermodynamic from solid, FaSSGF (pH 1.6), 37 ± 2.0 °C, read-out: Solubility) of 146 ± 12 µg/mL (≈ 550 µM), a solubility at 72 h ([1]; FaSSGF, 37 °C, pH 1.6, fassgf or other biorelevant, thermodynamic from solid, FaSSGF, read-out: solubility) of about 146 µg/mL (≈ 550 µM) and a solubility at 72 h ([1]; FaSSIF, 37 °C, pH 6.5, fassif, thermodynamic from solid, FaSSIF (pH 6.5), 37 ± 2.0 °C, read-out: Solubility) of 8 ± 1 µg/mL (≈ 30.2 µM). The solubility at 72 h ([1]; FaSSIF, 37 °C, pH 6.5, fassif, thermodynamic from solid, FaSSIF, read-out: solubility) was 8.2 µg/mL (≈ 30.9 µM), the “solubility in FeSSIF compared to FaSSIF” value ([1]; FeSSIF vs FaSSIF) was 2 fold and the solubility at 72 h ([1]; FeSSIF, pH 5, FeSSIF (pH 5.0), 37 ± 2.0 °C, read-out: Solubility) was 21 ± 4 µg/mL (≈ 79.1 µM). For the same molecule, the solubility at 72 h ([1]; FeSSIF, pH 5, FeSSIF, read-out: solubility) was about 20.5 µg/mL (≈ 77.3 µM), the Km (FMO3) was 9.6 µM and the Vmax (FMO3) was 1103 pmol/min/pmol. For the same molecule, the “Fold error, AUC0–∞ (predicted parameter/observed parameter)” value [2] was 1.13, the “Fold error, Cmax (predicted parameter/observed parameter)” value [2] was 1.16 and the “Log Po:w” value ([3]; PBPK input, ref [34]) was 2.7. The “pKa1 (Ampholyte)” value ([3]; PBPK input, ref [35]) was 10.3, the “pKa2 (Ampholyte)” value ([3]; PBPK input, ref [35]) was 2.8 and the “pKa1 (Ampholyte)” value ([3]; PBPK input, ref [35], listed as Albendazole) was 10.26. The BCS class ([3]; low solubility and high permeability) was “BCS class II”, the “AUC0–∞ (observed)” value [4] was 53.0 ng·h/mL and the “Cmax (Observed)” value [4] was 9.55 ng/mL. The Km (CYP3A4) was 10.1 µM, the Vmax (CYP3A4) was 369 pmol/min/pmol and the solubility at 72 h (physchem) was 12 µg/mL (≈ 45.2 µM). For the same molecule, the absolute oral bioavailability [5] was under 5%, the d10 ([6]; laser diffraction) was 0.95 ± 0.10 µm and the d50 ([6]; laser diffraction) was 4.1 ± 0.64 µm. For the same molecule, the d90 ([6]; laser diffraction) was 22 ± 1.3 µm, the “Particle size distribution, Mean Radius” value ([6]; polydispersed) was 7.52 µm and the “Particle size distribution, Weibull Alpha” value ([6]; polydispersed) was 1.014. For the same molecule, the “Particle size distribution, Weibull Beta” value ([6]; polydispersed) was 8.732, the “dissolution in FaSSGF within 30 min” value ([7]; 40 mg dose, FaSSGF 250 mL pH 1.6) was “completely dissolved” and the “precipitation upon transfer to FaSSIF” value ([7]; 40 mg dose, FaSSIF pH 6.5) was “immediate precipitation”. For the same molecule, the “Critical Supersaturation Ratio (CSR)” value ([7]; set from transfer experiment, FaSSIF) was 1, the “Precipitation rate constant (PRC)” value ([7]; set from transfer experiment) was 1000 h⁻¹ and the “Precipitation rate constant (PRC)” value ([7]; set from transfer experiment, listed as Albendazole) was 1000 (max. value) 1/h.
In the case of `CCC[S+]([O-])c1ccc2[nH]c(NC(=O)OC)nc2c1` (stereo not shown) [ABZ_SO, albendazole sulfoxide], the “fu (fraction unbound in plasma)” value [8] is given as 0.3, the “Fold error, AUC0–∞ (predicted parameter/observed parameter)” value [2] is given as 0.97 and the “Fold error, Cmax (predicted parameter/observed parameter)” value [2] is given as 1.01. For the same molecule, the “pKa1 (Ampholyte)” value ([3]; PBPK input, ref [35]) was 9.79, the “Log Po:w” value ([3]; PBPK input, ref [38]) was 1.17 and the “AUC0–∞ (observed)” value [4] was 3475 ng·h/mL. The “Cmax (Observed)” value [4] was 193.5 ng/mL.
